Data reported in article PMC12005229, “Final results from the phase Ia/Ib study of the novel bromodomain and extra-terminal domain inhibitor, BI 894999, in patients with advanced solid tumors or diffuse large B-cell lymphoma” (ESMO Open, 2025).
Values joined by “and” are separate entries in the source; they are usually repeats but may differ in a detail not shown here. Equal entries are not always repeated. “Also recorded” adds a separate entry of the source.

System: patients with DLBCL
Test: phase Ia DLBCL extension: DLTs, MTD, adverse events, exposure
Assay type: in vivo
Settings: for DLT grade ≥3 / DLT / DLT duration / DLT grade / DLT outcome: individual patient events
Description: The extension to the phase Ia dose escalation evaluated schedules B and C for patients with DLBCL.

[1] = DLBCL phase Ia extension n = 18
[2] = DLBCL, on-treatment period, schedule B 2.0 mg
[3] = DLBCL, on-treatment period, schedule C 4.0/2.0 mg
[4] = DLBCL, on-treatment period, schedule C 5.0/2.5 mg
[5] = DLBCL, schedule B 1.5 mg, MTD evaluation period
[6] = DLBCL, schedule B 2.0 mg, MTD evaluation period
[7] = DLBCL, schedule B 2.5 mg, MTD evaluation period
[8] = phase Ia DLBCL, MTD evaluation period

CNc1nc(-c2nc3ccc(N4CCN(C)CC4)cc3n2Cc2ccccc2)cn2c(C)nnc12 [BI 894999]
AEs leading to death [1]: 1 (5.6) n (%)
AEs leading to discontinuation of trial drug [1]: 4 (22.2) n (%)
AEs leading to dose reduction [1]: 3 (16.7) n (%)
Any AE [1]: 18 (100) n (%)
DLT in on-treatment period [1]: 8 (44.4) n (%)
Treatment-related AEs [1]: 15 (83.3) n (%)
Treatment-related serious AEs [1]: 2 (11.1) n (%)
Anemia, treatment-related AE, any grade (DLBCL phase Ia n = 18): 5 (27.8) n (%)
Anemia, treatment-related AE, grade ≥3 (DLBCL phase Ia n = 18): 5 (27.8) n (%)
Asthenia, treatment-related AE, any grade (DLBCL phase Ia n = 18): 2 (11.1) n (%)
Asthenia, treatment-related AE, grade ≥3 (DLBCL phase Ia n = 18): 0 n (%)
Decreased appetite, treatment-related AE, any grade (DLBCL phase Ia n = 18): 4 (22.2) n (%)
Decreased appetite, treatment-related AE, grade ≥3 (DLBCL phase Ia n = 18): 0 n (%)
Decreased platelet count, treatment-related AE, any grade (DLBCL phase Ia n = 18): 2 (11.1) n (%)
Decreased platelet count, treatment-related AE, grade ≥3 (DLBCL phase Ia n = 18): 2 (11.1) n (%)
Diarrhea, treatment-related AE, any grade (DLBCL phase Ia n = 18): 9 (50.0) n (%)
Diarrhea, treatment-related AE, grade ≥3 (DLBCL phase Ia n = 18): 0 n (%)
Dysgeusia, treatment-related AE, any grade (DLBCL phase Ia n = 18): 2 (11.1) n (%)
Dysgeusia, treatment-related AE, grade ≥3 (DLBCL phase Ia n = 18): 0 n (%)
Epistaxis, treatment-related AE, any grade (DLBCL phase Ia n = 18): 2 (11.1) n (%)
Epistaxis, treatment-related AE, grade ≥3 (DLBCL phase Ia n = 18): 0 n (%)
Fatigue, treatment-related AE, any grade (DLBCL phase Ia n = 18): 4 (22.2) n (%)
Fatigue, treatment-related AE, grade ≥3 (DLBCL phase Ia n = 18): 0 n (%)
Hematoma, treatment-related AE, any grade (DLBCL phase Ia n = 18): 2 (11.1) n (%)
Hematoma, treatment-related AE, grade ≥3 (DLBCL phase Ia n = 18): 0 n (%)
Muscle spasms, treatment-related AE, any grade (DLBCL phase Ia n = 18): 2 (11.1) n (%)
Muscle spasms, treatment-related AE, grade ≥3 (DLBCL phase Ia n = 18): 0 n (%)
Nausea, treatment-related AE, any grade (DLBCL phase Ia n = 18): 5 (27.8) n (%)
Nausea, treatment-related AE, grade ≥3 (DLBCL phase Ia n = 18): 0 n (%)
Neutropenia, treatment-related AE, any grade (DLBCL phase Ia n = 18): 4 (22.2) n (%)
Neutropenia, treatment-related AE, grade ≥3 (DLBCL phase Ia n = 18): 3 (16.7) n (%)
Thrombocytopenia, treatment-related AE, any grade (DLBCL phase Ia n = 18): 11 (61.1) n (%)
Thrombocytopenia, treatment-related AE, grade ≥3 (DLBCL phase Ia n = 18): 8 (44.4) n (%)
Troponin increased, treatment-related AE, any grade (DLBCL phase Ia n = 18): 2 (11.1) n (%)
Troponin increased, treatment-related AE, grade ≥3 (DLBCL phase Ia n = 18): 1 (5.6) n (%)
DLT grade ≥3 (DLBCL, on-treatment period, schedule B 1.5 mg): Increased troponin
DLT duration, melena [2]: 7 days
DLT grade, melena [2]: 3
DLT grade ≥3 [2]: Thrombocytopenia; also recorded: Melena
DLT grade ≥3 (DLBCL, on-treatment period, schedule B 2.5 mg): Thrombocytopenia; also recorded: Sepsis; also recorded: Febrile neutropenia
DLT grade, decreased platelet count [3]: 4
DLT grade ≥3 [3]: Decreased platelet
DLT duration, thrombocytopenia [4]: 8 days
DLT grade, neutropenia [4]: 4
DLT grade, thrombocytopenia [4]: 4
DLT grade ≥3 [4]: Neutropenia; also recorded: Thrombocytopenia
DLT [5]: Increased troponin
DLT duration [5]: 5 days
DLT grade [5]: 3
DLT outcome [5]: Recovered
DLT [6]: Thrombocytopenia
DLT duration [6]: 11 days
DLT grade [6]: 4
DLT outcome [6]: Not recovered
DLT [7]: Thrombocytopenia; also recorded: Sepsis; also recorded: Febrile neutropenia
DLT duration [7]: 5 days and 6 days and 7 days and 2 days
DLT grade [7]: 4 and 3
DLT outcome [7]: Not recovered; also recorded: Recovered
maximum tolerated dose (MTD) (DLBCL, schedule B (days 1-14/21)): 1.5 mg
maximum tolerated dose (MTD) (DLBCL, schedule C): not declared
anemia, grade ≥3 treatment-related AE (phase Ia DLBCL): 27.8%
anemia, treatment-related AE of any grade (phase Ia DLBCL): 27.8%
decreased platelet count, grade ≥3 treatment-related AE (phase Ia DLBCL): 11.1%
decreased platelet count, treatment-related AE of any grade (phase Ia DLBCL): 11.1%
diarrhea, treatment-related AE of any grade (phase Ia DLBCL): 50.0%
discontinuation because of DLT (phase Ia DLBCL): 11.1%
discontinuation because of other AEs (phase Ia DLBCL): 5.6%
discontinuation because of progressive disease (phase Ia DLBCL): 83.3%
dose discontinuations due to AEs (phase Ia DLBCL): 22.2%
dose reductions due to AEs (phase Ia DLBCL): 16.7%
fatigue, treatment-related AE of any grade (phase Ia DLBCL): 22.2%
increased troponin, treatment-related AE of any grade (phase Ia DLBCL): 11.1%
lymph node pain leading to dose discontinuation (phase Ia DLBCL): 5.6%
median time to first dose reduction (phase Ia DLBCL): 36.0 days
nausea, treatment-related AE of any grade (phase Ia DLBCL): 27.8%
neutropenia leading to dose discontinuation (phase Ia DLBCL): 5.6%
neutropenia, grade ≥3 treatment-related AE (phase Ia DLBCL): 16.7%
neutropenia, treatment-related AE of any grade (phase Ia DLBCL): 22.2%
patients who underwent dose reductions (phase Ia DLBCL): 16.7%
patients with AEs of any grade (phase Ia DLBCL): 100%
patients with treatment-related AEs (phase Ia DLBCL): 83.3%
thrombocytopenia leading to dose discontinuation (phase Ia DLBCL): 11.1%
thrombocytopenia, grade ≥3 treatment-related AE (phase Ia DLBCL): 44.4%
thrombocytopenia, treatment-related AE of any grade (phase Ia DLBCL): 61.1%
DLT grade 3 febrile neutropenia [8]: 7.7%
DLT grade 3 increased troponin [8]: 7.7%
DLT grade 4 sepsis [8]: 7.7%
DLT grade 4 thrombocytopenia [8]: 23.1%
assessable patients with DLTs [8]: 4/17
total patients with DLTs during the on-treatment period (phase Ia DLBCL, schedule B): 5 n
patients with DLTs (phase Ia DLBCL, schedule B 1.5 mg, MTD evaluation period): 1 n
patients with DLTs (phase Ia DLBCL, schedule B 2.0 mg, MTD evaluation period): 1 n
patients with DLTs (phase Ia DLBCL, schedule B 2.5 mg, MTD evaluation period): 2 n
patients with DLTs (phase Ia DLBCL, schedule B (n = 13), MTD evaluation period): 30.8%
total patients with DLTs during the on-treatment period (phase Ia DLBCL, schedule C): 3 n
patients with DLTs (phase Ia DLBCL, schedule C, MTD period): No patients receiving schedule C experienced DLTs; also recorded: a No DLBCL patients on schedule C experienced DLTs on BI 894999
